Reference: US10144938B2, “Methods of processing aromatic compounds” (WISCONSIN ALUMNI RESEARCH FOUNDATION, priority 2015, dated 2018)

Legend:
[1] = test system: bacterial or yeast ethanologens; settings: literature reports; cited from earlier work
[2] = test system: R. sphaeroides 2.4.1; assay: Glucose and xylose consumption in synthetic hydrolysate with individual aromatics added; type: cell-based, Rhodobacter sphaeroides; settings: individual aromatics at concentrations present in SynH2, diluted to 20% strength, FIG. 9
Excerpt: For comparison, glucose and xylose utilization in 20% SynH2^− (no aromatics), as well as in 20% ACSH and 20% AHPCSH are also included.

SMILES	Inhibitory to bacterial or yeast ethanologens [1]	Effect on glucose utilization [2]
O=C(O)c1ccccc1 [Benzoate]	inhibitory	
COc1cc(C(C)=O)ccc1O [Acetovanillone]	inhibitory	
CC(=O)c1ccc(O)cc1 [4-Hydroxyacetophenone]	inhibitory	inhibited glucose utilization
COc1cc(C=O)ccc1O [Vanillin]	inhibitory	
O=C(O)/C=C/c1ccc(O)cc1 [p-Coumaric acid]	inhibitory	inhibited glucose utilization
O=Cc1ccc(O)cc1 [4-Hydroxybenzaldehyde]	inhibitory	inhibited glucose utilization
